Laboratory results: patent US6444677B2, “5-membered heteroaryl substituted 1,4-dihydropyridine compounds as bradykinin antagonists” (Pfizer Inc., priority 1999, dated 2002)
Counter-ions that a name gives are not always drawn.

Structure (SMILES) | melting point
COC(=O)C1=C(CCc2nccs2)NC(CC(=O)N2CCN(CC3(C#N)CCCCC3)CC2)=C(C(=O)OC)C1c1c(Cl)cccc1Cl (stereo not shown) (as salt: HCl) [Example 1, Dimethyl 2-[2-[4-[(1-cyanocyclohexyl)methyl]-1-piperazinyl]-2-oxoethyl]-4-(2,6-dichlorophenyl)-6-[2-(1,3-thiazol-2-yl)ethyl]-1,4-dihydro-3,5-pyridinedicarboxylate] | 211 to 213 °C (dec.)
COC(=O)C1=C(CCc2nccs2)NC(CC(=O)N2CCN(CC3(CN)CCCCC3)CC2)=C(C(=O)OC)C1c1c(Cl)cccc1Cl (stereo not shown) (as salt: HCl) [Example 2, Dimethyl 2-[2-[4-[[1-(aminomethyl)cyclohexyl]methyl]-1-piperazinyl]-2-oxoethyl]-4-(2,6-dichlorophenyl)-6-[2-(1,3-thiazol-2-yl)ethyl]-1,4-dihydro-3,5-pyridinedicarboxylate] | 206 to 210 °C (dec.)
CCNCC1(CN2CCN(C(=O)CC3=C(C(=O)OC)C(c4c(Cl)cccc4Cl)C(C(=O)OC)=C(CCc4nccs4)N3)CC2)CCCCC1 (stereo not shown) (as salt: HCl) [Example 3, Dimethyl 4-(2,6-dichlorophenyl)-2-[2-[4-[[1-[(ethylamino)methyl]cyclohexyl]methyl]-1-piperazinyl]-2-oxoethyl]-6-[2-(1,3-thiazol-2-yl)ethyl]-1,4-dihydro-3,5-pyridinedicarboxylate] | 206 to 210 °C (dec.)
COC(=O)C1=C(CCc2nccs2)NC(CC(=O)N2CCN(CC3(N)CCCCC3)CC2)=C(C(=O)OC)C1c1c(Cl)cccc1Cl (stereo not shown) (as salt: HCl) [Example 6, Dimethyl 2-[2-[4-[(1-aminocyclohexyl)methyl]-1-piperazinyl]-2-oxoethyl]4-(2,6-dichlorophenyl)-6-[2-(1,3-thiazol-2-yl)ethyl]-1,4-dihydro-3,5-pyridinedicarboxylate] | 210 to 220 °C (dec.)
COC(=O)C1=C(CCc2nccs2)NC(CC(=O)N2CCN(CC3(CNC4CCCC4)CCCC3)CC2)=C(C(=O)OC)C1c1c(Cl)cccc1Cl (stereo not shown) (as salt: HCl) [Example 11, Dimethyl 2-[2-[4-[[1-[(cyclopentylamino)methyl]cyclopentyl]methyl]-1-piperazinyl]-2-oxoethyl]-4-(2,6dichlorophenyl)-6-[2-(1,3-thiazol-2-yl)ethyl]-1,4-dihydro-3,5-pyridinedicarboxylate] | 174 to 177 °C (dec.)
CCN(CC)C1C2CCC1CC(N1CCN(C(=O)CC3=C(C(=O)OC)C(c4c(Cl)cccc4Cl)C(C(=O)OC)=C(CCc4nccs4)N3)CC1)C2 (stereo not shown) (as salt: HCl) [Example 12, Dimethyl 4-(2,6-dichlorophenyl)-2-[2-[4-(8-(diethylamino)bicyclo [3.2.1]oct-3-yl)-1-piperazinyl]-2-oxoethyl]-6-[2-(1,3-thiazol-2-yl)ethyl]-1,4-dihydro-3,5-pyridinedicarboxylate] | 200 to 205 °C (dec.)
COC(=O)C1=C(CCc2nccs2)NC(CC(=O)N2CCN(CCC(C)(C)N3CCCC3=O)CC2)=C(C(=O)OC)C1c1c(Cl)cccc1Cl (stereo not shown) (as salt: HCl) [Example 20, Dimethyl 4-(2,6-dichlorophenyl)-2-[2-[4-[3-methyl-3-(2-oxo-1-pyrrolidinyl)butyl]-1-piperazinyl]-2-oxoethyl]-6-[2-(1,3-thiazol-2-yl)ethyl]-1,4-dihydro-3,5-pyridinedicarboxylate] | 179 °C (dec.)
COC(=O)C1=C(CCc2nccs2)NC(CC(=O)N2CCN(CC(C)(C)CNS(C)(=O)=O)CC2)=C(C(=O)OC)C1c1c(Cl)cccc1Cl (stereo not shown) [Example 13, Dimethyl 4-(2,6-dichlorophenyl)-2-[2-[4-[2,2-dimethyl-3-[(methylsulfonyl)amino]propyl]-1-piperazinyl]-2-oxoethyl]-6-[2-(1,3-thiazol-2-yl)ethyl]-1,4-dihydro-3,5-pyridinedicarboxylate] | 132 to 136 °C
COC(=O)C1=C(CCc2nccs2)NC(CC(=O)N2CCN(CC(C)(C)C#N)CC2)=C(C(=O)OC)C1c1c(Cl)cccc1Cl (stereo not shown) [Example 15, Dimethyl 2-[2-[4-(2-cyano-2-methylpropyl)-1-piperazinyl]-2-oxoethyl]-4-(2,6-dichlorophenyl)-6-[2-(1,3-thiazol-2-yl)ethyl]-1,4-dihydro-3,5-pyridinedicarboxylate] | 120 to 122 °C
COC(=O)C1=C(CCc2nccs2)NC(CC(=O)N2CCN(CC(C)(C)CNC(C)=O)CC2)=C(C(=O)OC)C1c1c(Cl)cccc1Cl (stereo not shown) [Example 16, Dimethyl 2-[2-[4-[3-(acetylamino)-2,2-dimethylpropyl]-1-piperazinyl]-2-oxoethyl]-4-(2,6-dichlorophenyl)-6-[2-(1,3-thiazol-2-yl)ethyl]-1,4-dihydro-3,5 pyridinedicarboxylate] | 104 to 107 °C
COC(=O)C1=C(CCc2nccs2)NC(CC(=O)N2CCN(CC3(CN)CCCC3)CC2)=C(C(=O)OC)C1c1c(Cl)cccc1Cl (stereo not shown) [Example 17, Dimethyl 2-[2-[4-[[1-(aminomethyl)cyclopentyl]methyl]-1-piperazinyl]-2-oxoethyl]-4-(2,6-dichlorophenyl)-6-[2-(1,3-thiazol-2-yl)ethyl]-1,4-dihydro-3,5-pyridinedicarboxylate] | 161 to 164 °C
COC(=O)C1=C(CCc2nccs2)NC(CC(=O)N2CCN(CC(C)(C)CN)CC2)=C(C(=O)OC)C1c1c(Cl)cccc1Cl (stereo not shown) [Example 18, Dimethyl 2-[2-[4-(3-amino-2,2-dimethylpropyl)-1-piperazinyl]-2-oxoethyl]-4-(2,6-dichlorophenyl)-6-[2-(1,3-thiazol-2-yl)ethyl]-1,4-dihydro-3,5-pyridinedicarboxylate] | 158 to 162 °C

Next, values leading:

melting point | Structure (SMILES)
185 to 190 °C (dec.) | COC(=O)C1=C(CCc2nccs2)NC(CC(=O)N2CCN(CCCN3CCCC3=O)CC2)=C(C(=O)OC)C1c1c(Cl)cccc1Cl (stereo not shown) (as salt: HCl) [Example 22, Dimethyl 4-(2,6-dichlorophenyl)-2-[2-oxo-2-[4-[3-(2-oxo-1-pyrrolidinyl)propyl]-1-piperazinyl]ethyl]-6-[2-(1,3-thiazol-2-yl)ethyl]-1,4-dihydro-3,5-pyridinedicarboxylate]
182 to 184 °C (dec.) | COC(=O)C1=C(CCc2nccs2)NC(CC(=O)N2CCN(C3CCC(N4CCCC4=O)CC3)CC2)=C(C(=O)OC)C1c1c(Cl)cccc1Cl (stereo not shown) (as salt: HCl) [Example 23, Dimethyl 4-(2,6-dichlorophenyl)-2-[2-oxo-2-[4-[4-(2-oxo-1-pyrrolidinyl)cyclohexyl]-1-piperazinyl]ethyl]-6-[2-(1,3-thiazol-2-yl)ethyl]-1,4-dihydro-3,5-pyridinedicarboxylate]
188 to 190 °C (dec.) | COC(=O)C1=C(CCc2nccs2)NC(CC(=O)N2CCN(CCC3(O)CCCCC3)CC2)=C(C(=O)OC)C1c1c(Cl)cccc1Cl (stereo not shown) (as salt: HCl) [Example 28, Dimethyl 4-(2,6-dichlorophenyl)-2-[2-[4-[2-(1-hydroxycyclohexyl)ethyl]-1-piperazinyl]-2-oxoethyl]-6-[2-(1,3-thiazol-2-yl)ethyl]-1,4-dihydro-3,5-pyridinedicarboxylate]
188 to 193 °C (dec.) | COC(=O)C1=C(CCc2nccs2)NC(CC(=O)N2CCN(CCCN3C(=O)CCC3C)CC2)=C(C(=O)OC)C1c1c(Cl)cccc1Cl (stereo not shown) (as salt: HCl) [Example 29, Dimethyl 4-(2,6-dichlorophenyl)-2-[2-[4-[3-(2-methyl-5-oxo1-pyrrolidinyl)propyl]-1-piperazinyl]-2-oxoethyl]-6-[2-(1,3-thiazol-2-yl)ethyl]-1,4-dihydro-3,5-pyridinedicarboxylate]
175 to 180 °C (dec.) | COC(=O)C1=C(CCc2nccs2)NC(CC(=O)N2CCN(CCC3(N4CCCC4=O)CCCC3)CC2)=C(C(=O)OC)C1c1c(Cl)cccc1Cl (stereo not shown) (as salt: HCl) [Example 33, Dimethyl 4-(2,6-dichlorophenyl)-2-[2-oxo-2-[4-[2-[1-(2-oxo-1-pyrrolidinyl)cyclopentyl]ethyl]-1-piperazinyl]ethyl]-6-[2-(1,3-thiazol-2-yl)ethyl]-1,4-dihydro-3,5-pyridinedicarboxylate]
195 to 200 °C (dec.) | CCN(CC)C1(CCN2CCN(C(=O)CC3=C(C(=O)OC)C(c4c(Cl)cccc4Cl)C(C(=O)OC)=C(CCc4nccs4)N3)CC2)CCCC1 (stereo not shown) (as salt: HCl) [Example 34, Dimethyl 4-(2,6-dichlorophenyl)2-[2-[4-[2-[1-(diethylamino)cyclopentyl]ethyl]-1-piperazinyl]-2-oxoethyl]-6-[2-(1,3-thiazol-2-yl)ethyl]-1,4-dihydro-3,5-pyridinedicarboxylate]
169 to 177 °C (dec.) | COC(=O)C1=C(CCc2nccs2)NC(CC(=O)N2CCN(CCCCN3CCOCC3)CC2)=C(C(=O)OC)C1c1c(Cl)cccc1Cl (stereo not shown) (as salt: HCl) [Example 38, Dimethyl 4-(2,6-dichlorophenyl)-2-[2-[4-[4-(4-morpholinyl)butyl]-1-piperazinyl]-2-oxoethyl]-6-[2-(1,3-thiazol-2-yl)ethyl]-1,4-dihydro-3,5-pyridinedicarboxylate]
151 to 155 °C (dec.) | CCC(CC)(CCN1CCN(C(=O)CC2=C(C(=O)OC)C(c3c(Cl)cccc3Cl)C(C(=O)OC)=C(CCc3nccs3)N2)CC1)N1CCCC1=O (stereo not shown) (as salt: HCl) [Example 39, Dimethyl 4-(2,6-dichlorophenyl)-2-[2-[4-[3-ethyl-3-(2-oxo-1-pyrrolidinyl)pentyl]-1-piperazinyl]-2-oxoethyl]-6-[2-(1,3-thiazol-2-yl)ethyl]-1,4-dihydro-3,5-pyridinedicarboxylate]
158 to 163 °C (dec.) | COC(=O)C1=C(CCc2nccs2)NC(CC(=O)N2CCN(CCC3(C(N)=O)CCCC3)CC2)=C(C(=O)OC)C1c1c(Cl)cccc1Cl (stereo not shown) (as salt: HCl) [Example 43, Dimethyl 2-[2-[4-[2-[1-(aminocarbonyl)cyclopentyl]ethyl]-1-piperazinyl]-2-oxoethyl]-4-(2,6-dichlorophenyl)-6-[2-(1,3-thiazol-2-yl)ethyl]-1,4-dihydro-3,5-pyridinedicarboxylate]
162 to 163 °C (dec.) | CCNCC1(C2CCN(C(=O)CC3=C(C(=O)OC)C(c4c(Cl)cccc4Cl)C(C(=O)OC)=C(CCc4nccs4)N3)CC2)CCCCC1 (stereo not shown) (as salt: HCl) [Example 45, Dimethyl 4-(2,6-dichlorophenyl)-2-[2-[4-[1-[(ethylamino)methyl]cyclohexyl]-1-piperidinyl]-2-oxoethyl]-6-[2-(1,3-thiazol-2-yl)ethyl]-1,4-dihydro-3,5-pyridinedicarboxylate]
